In series [1] the test system is FU100. To be noted: for Lowest Positive Dose: lowest dose tested giving a positive response. The method, then:
Briefly, in order to practice the disclosed mutation assay one-ml aliquots of exponentially growing bacteria are exposed to the test agent for two hours in the presence and absence of a metabolic activation system, such as a mammalian (i.e., rat, hamster or human) liver homogenate (S9-fraction or liver microsomal enzymes). The aliquots are then diluted, allowed to grow for 3 hours, and assessed for treatment-related toxicity/inhibition by optical density. The cultures are subsequently diluted a second time and grown overnight to permit full recovery from toxicity and to allow expression of the FU^R phenotype. Samples of the cultures are then plated in 384-well microtiter dishes in the presence of 2 μg/ml 5-FU and the pH-sensitive indicator bromcresol purple. Three days later positive wells containing FU^R colonies are detected by their yellow color and enumerated. Treated cultures are then compared to control plates to determine genotoxic activity.
For each mutation experiment, two frozen 1-ml aliquots of FU100 were quickly thawed in a 37° C. water bath, pelleted by centrifugation, washed to remove the DMSO, and suspended in 35 mL of MinE medium. The culture was shaken for approximately 1 hour at 37° C. until the optical density at 600 nm (OD600) reached the target density of 0.3. A 16-ml aliquot of culture was added to each of two 50-ml tubes containing 3.6 ml of a NADPH-generating system (5.6 mM glucose-6-phosphate, 4.5 mM NADP+, 5 mM sucrose, 110 mM Na2HPO4, 37 mM KCl, and 9 mM MgCl2) and either 0.4 ml rat liver S-9 or an equal volume of sodium phosphate buffer. Aliquots of these mixtures were distributed into three 12-well cluster dishes (one for exposure with S-9, one for exposure without S-9, one for controls with and without S-9), and exposed to test compounds as 1-ml aliquots for 2 hour as outlined in FIG. 1.
Following treatment, the 1-ml aliquots were transferred into 9 ml of warm MinE medium in a 50 ml tube and incubated at 37° C. on a rotary wheel for 3 hours. Next, 20 ml of medium was added to each culture tube and 0.25 ml aliquots were transferred to a 96-well plate for OD600 measurements to assess toxicity (OD Day 1). […] Bulk cultures were then incubated overnight in the dark at 30° C. to permit recovery from toxicity and to allow time for the test cells to express the FU^R phenotype.
The next day, OD600 was again assessed to adjust cell number plated on 5-FU plates (OD Day 2; 100 μl of the culture diluted with 150 μl MinE medium for OD600 measurements). For plating, a 35 μl aliquot of each culture was added to 31.4 mL of MinE medium with 2 μg/ml of 5-FU and 10 μg/ml of bromcresol purple. The mixture was then dispersed into a 384-well plate (75 μl/well) and placed at 37° C. for 3 days in a humidified incubator.
The data obtained for both survival (OD day 1), relative number of cells plated (OD day 2), and number of positive wells were imported into an Excel template.
Table 8 summarizes the criteria for positive result in 5-FU assay using the FU100 tester strain described and claimed herein. […] A positive compound was defined when two or more doses met the aforementioned criteria.

In series [2] the test system is FU100.
The subject of another series is Salmonella. The note with it: cited from earlier work.
Where [3] appears, read: in the presence of S9 activation (+), FU100, 2 h exposure.
[4] abbreviates: without S9 activation (−), FU100, 2 h exposure.
Setting [5] is: in the presence of S9 activation (+), approximate, first dose with greater than 50% survival by optical density on Day 1.
[6] abbreviates: without S9 activation (−), approximate, first dose with greater than 50% survival by optical density on Day 1.
Setting [7] is: in the presence of S9 activation (+).
[8] abbreviates: NTP Results Report 12 Aug. 2002 or cited reference (footnotes f, g, i, j).

Like-named read-outs stand apart in the source and are kept apart here.

For the compound `CCCCCCCCCCCCOS(=O)(=O)[O-].[Na+]` [Sodium Dodecyl Sulfate], the “Results (5-FU assay)” value in the series on FU100 [1] (setting [3]) and in the series on FU100 [1] (setting [4]) was “Neg” in each case. The figures for the LD50 in the series with FU100 [2] (setting [5]) and in the series with FU100 [2] (setting [6]) were greater than 35 µg/mL and greater than 20 µg/mL, respectively.
With `O=c1ccc2ccccc2o1` [Coumarin], the “Results (5-FU assay)” value is on record as “Pos” in the series on FU100 [1] (setting [3]) and “Neg” in the series on FU100 [1] (setting [4]). In addition, the “Lowest Positive Dose” value in the series with FU100 [1] (setting [7]) was determined as 50 µg/mL. For the same compound, the results for the LD50 in the series with FU100 [2] (setting [5]) and with FU100 [2] (setting [6]) were greater than 150 µg/mL and greater than 900 µg/mL, respectively.
In the case of `O=[N+]([O-])c1cc[n+]([O-])c2ccccc12` [4-Nitroquinoline N-oxide], the LD50 in the series on FU100 [2] (setting [5]) and with FU100 [2] (setting [6]) was greater than 0.5 µg/mL each time.
On to `O=[N+]([O-])c1ccc2c(c1)Cc1ccccc1-2` [2-Nitrofluorene], for which the “Results (5-FU assay)” value with FU100 [1] (setting [3]) and in the series on FU100 [1] (setting [4]) was “Pos” each time. The “Lowest Positive Dose” value with FU100 [1] (setting [7]) turned out to be 0.6 µg/mL; with FU100 [1] (without S9 activation (−)), 0.02 µg/mL. Moreover, the LD50 in the series with FU100 [2] (setting [5]) is greater than 2 µg/mL; in the series on FU100 [2] (setting [6]), greater than 1 µg/mL.
As for `c1ccc2c(c1)cc1ccc3cccc4ccc2c1c34` [Benzo[a]pyrene], the LD50 with FU100 [2] (setting [5]) and with FU100 [2] (setting [6]) was greater than 20 µg/mL in each case.
On to `C[C@H](CCC(=O)O)[C@H]1CC[C@H]2[C@@H]3CC[C@@H]4C[C@H](O)CC[C@]4(C)[C@H]3CC[C@]12C` [Lithocholic Acid], for which the “Results (5-FU assay)” value with FU100 [1] (setting [3]) and with FU100 [1] (setting [4]) was “Neg” in each case. For the same compound, the LD50 in the series with FU100 [2] (setting [5]) and in the series with FU100 [2] (setting [6]) was greater than 2000 µg/mL each time.
For the compound `CN(N=O)C(N)=O` [N-Nitroso-N-methylurea], the “Results (5-FU assay)” value in the series on FU100 [1] (setting [3]) and in the series on FU100 [1] (setting [4]) was “Pos” throughout. Further, the “Lowest Positive Dose” value in the series on FU100 [1] (setting [7]) and in the series on FU100 [1] (without S9 activation (−)) was 5.0 µg/mL throughout. Besides, the LD50 with FU100 [2] (setting [5]) and in the series on FU100 [2] (setting [6]) was greater than 90 µg/mL each time. The “NTP Results: SA = Salmonella” value in the series with Salmonella (setting [8]) is given as “(SA+)”.
`COS(C)(=O)=O` [Methyl Methanesulfonate]: in the series on FU100 [1] (before overnight grow back was introduced), the “plating efficiency of FU^R mutants in treated culture at the end of day 1” value was “significantly suppressed”. Further, the “Results (5-FU assay)” value in the series on FU100 [1] (setting [3]) and with FU100 [1] (setting [4]) was “Pos” throughout. In addition, the “Lowest Positive Dose” value in the series on FU100 [1] (setting [7]) was determined as 10 µg/mL; in the series with FU100 [1] (without S9 activation (−)) it was 0.6 µg/mL. Also, the “response in the 5-FU Assay (in words)” value with FU100 [1] (text and figure legend (FIG. 6), with or without S9) is listed as “positive compounds in non-toxic concentrations”. Further, the LD50 in the series on FU100 [2] (setting [5]) and in the series on FU100 [2] (setting [6]) was greater than 100 µg/mL in each case. In addition, the “NTP Results: SA = Salmonella” value in the series on Salmonella (setting [8]) is “(SA+)”.
On to `CCC1(c2ccccc2)C(=O)NC(=O)NC1=O` [Phenobarbital], for which the “Results (5-FU assay)” value in the series on FU100 [1] (setting [3]) and with FU100 [1] (setting [4]) was “Pos^w” in each case. The entries for the “Lowest Positive Dose” value with FU100 [1] (setting [7]) and in the series with FU100 [1] (without S9 activation (−)) were 1500 µg/mL and 2800 µg/mL, respectively. In addition, the LD50 in the series on FU100 [2] (setting [5]) and in the series with FU100 [2] (setting [6]) was greater than 500 µg/mL throughout.
`CC/C(=C(\c1ccccc1)c1ccc(OCCN(C)C)cc1)c1ccccc1` [Tamoxifen]: the “Results (5-FU assay)” value with FU100 [1] was “Neg”. The LD50 is greater than 15 µg/mL in the series with FU100 [2] (setting [5]) and greater than 3 µg/mL with FU100 [2] (setting [6]).
For the compound `O=C1NS(=O)(=O)c2ccccc21` [Saccharin], in the series on FU100 [1], the “Results (5-FU assay)” value is “Neg”. Moreover, in the series on FU100 [2] (Salmonella typhimurium), the LD50 was greater than 5000 µg/mL. Moreover, the “NTP Results: SA = Salmonella” value in the series on Salmonella is listed as “(SA−)”.
For the compound `O=Cc1ccccc1` [Benzaldehyde], the “Results (5-FU assay)” value in the series on FU100 [1] (setting [3]) and in the series on FU100 [1] (setting [4]) was “Neg” each time. Further, the LD50 in the series on FU100 [2] (setting [5]) and in the series on FU100 [2] (setting [6]) was greater than 150 µg/mL throughout.
With `CC(C)(OOC(C)(C)c1ccccc1)c1ccccc1` [Dicumyl peroxide], the “Results (5-FU assay)” value in the series on FU100 [1] (setting [3]) and with FU100 [1] (setting [4]) was “Neg” throughout. Moreover, the LD50 with FU100 [2] (setting [5]) and in the series with FU100 [2] (setting [6]) was greater than 5000 µg/mL each time. Moreover, in the series on Salmonella (setting [8]), the “NTP Results: SA = Salmonella” value is “(SA−)”.

These data come from patent publication US7923204B2, “Forward mutation assay based on 5-fluorouracil resistance” (priority 2003, dated 2011).
